Measurements taken from patent US7150974B1, “Parathyroid hormone receptor binding method” (The General Hospital Corporation, priority 1991, dated 2006).

How the values were obtained:
Type in all cases: cell-based
[1] = molecular target: T1, rat bone PTH/PTHrP receptor (Rattus norvegicus, UniProt P25961, E586G); assay: Intracellular free calcium, COS-7 cells expressing R15B; settings: COS-7 cells expressing rat receptor
T1 construct: expressed in transfected cells; host or cells: COS / COS-7 cells, transient, plasmid R15B (pcDNA I)
T1 sequence (P25961 27-591 E586G): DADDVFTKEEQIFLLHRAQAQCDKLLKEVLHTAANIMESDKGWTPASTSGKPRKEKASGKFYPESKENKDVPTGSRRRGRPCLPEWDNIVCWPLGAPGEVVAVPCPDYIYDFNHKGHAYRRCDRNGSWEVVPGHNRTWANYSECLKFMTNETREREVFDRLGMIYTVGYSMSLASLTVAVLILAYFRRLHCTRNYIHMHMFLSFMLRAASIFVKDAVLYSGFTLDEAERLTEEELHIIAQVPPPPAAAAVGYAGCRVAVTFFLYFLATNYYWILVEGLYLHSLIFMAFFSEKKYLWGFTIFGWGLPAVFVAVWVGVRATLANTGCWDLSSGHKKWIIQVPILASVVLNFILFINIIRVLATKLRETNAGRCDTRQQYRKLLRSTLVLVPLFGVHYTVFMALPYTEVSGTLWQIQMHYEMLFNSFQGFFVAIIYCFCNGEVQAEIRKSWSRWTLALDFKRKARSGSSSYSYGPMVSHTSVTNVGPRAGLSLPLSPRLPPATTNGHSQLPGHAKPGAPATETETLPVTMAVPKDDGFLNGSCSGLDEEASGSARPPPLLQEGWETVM
Experimental: Details of the methodology are:
Coverslips plated with COS cells were incubated in Fura-2 AM loading buffer containing, in mM: HEPES (N-[2-Hydroxyethyl]piperazine-N′-[2-ethanesulfonic acid]), 20; CaCl2, 1; KCl 5; NaCl, 145; MgSO4, 0.5; NaHCO3, 25; K2HPO4, 1.4; glucose, 10; and Fura-2 AM 91-(2-5′-carboxyoxazol-2′-yl)-6-aminobenzofuran-5oxy-(2′-amino-5′-methylphenoxy)ethane-N,N,N′,N′-tetraaecetic acid acetomethoxy ester), 0.5; at 37° C. at pH7.4, aerated with 95% air and 5% CO2 for 45 minutes. Cells loaded with Fura-2 AM were then washed with a modified Krebs-Heinseleit (KH) buffer containing, in mM: HEPES, 20; CaCl2, 1; KCl, 5; NaCl, 145; MgSO4, 0.5; Na2HPO4, 1; glucose, 5; pH7.4. To check that cleavage of the ester occurred, the excitation spectra after different times of Fura-2 AM incubation were measured.
To measure fluorescence of individual cells, the cover slips were placed in a microscope tissue chamber (Biophysica Technologies, Inc., MD). The chamber consisted of a shallow, sloped compartment made of Teflon with a silicone rubber seal. The cover slips served as the bottom of the chamber. A heater/cooler ring was encased in the silicone rubber which sealed the coverslip in place.

[2] = molecular target: T1, rat bone PTH/PTHrP receptor; assay: Inositol phosphate metabolism, COS cells expressing R15B; settings: FIG. 15
[3] = molecular target: T2, opossum kidney PTH/PTHrP receptor clone, OK-H (Didelphis virginiana, UniProt P25107, I132F/S86P); assay: cAMP accumulation, COS cells expressing OK-H; settings: FIG. 16
T2 construct: expressed in transfected cells; host or cells: COS cells, transient, plasmid OK-H (pcDNA I)
Experimental: Intracellular cAMP accumulation was measured as described previously (Abou-Samra et al., J. Biol. Chem. 262:1129, 1986). Cells in 24-well plates were rinsed with culture medium containing 0.1% BSA and 2 mM IBMX. The cells were then incubated with PTH or PTHrP for 15 min. at 37° C. The supernatant was removed and the cells immediately frozen by placing the whole plate in dry ice powder. Intracellular cAMP was extracted by thawing the cells in 1 ml of 50 mM HCl and analyzed by a specific radioimmunoassay using an anti-cAMP antibody (e.g., Sigma, St. Louis, Mo.). A cAMP analog (2′-O-monosuccinyl-adenosine 3′:5′-cyclic monophosphate tyrosyl methyl ester, obtained from Sigma) which was used a tracer for cAMP was iodinated by the chloramine T method. Free iodine was removed by adsorbing the iodinated cAMP analog onto a C18 Sep-pak cartridge (Waters, Milford, Mass.). After washing with dH2O, the iodinated cAMP analog was eluted from the Sep-pak Cartridge with 40% acetonitrille (ACN) and 0.1% trifluoroacetic acid (TFA). The iodinated cAMP analog was lyophilized, reconstituted in 1 ml 0.1% TFA, and injected into a C18 reverse phase HPLC column (Waters). […] The supernatant was removed and the bound radioactivity was counted in a γ-counter (Micromedic). Standard curves were calculated using the four-parameter RIA program supplied by Micromedic. […]

T2 sequence (P25107 other isoform, or with tags, fused parts or gaps S86P/I132F): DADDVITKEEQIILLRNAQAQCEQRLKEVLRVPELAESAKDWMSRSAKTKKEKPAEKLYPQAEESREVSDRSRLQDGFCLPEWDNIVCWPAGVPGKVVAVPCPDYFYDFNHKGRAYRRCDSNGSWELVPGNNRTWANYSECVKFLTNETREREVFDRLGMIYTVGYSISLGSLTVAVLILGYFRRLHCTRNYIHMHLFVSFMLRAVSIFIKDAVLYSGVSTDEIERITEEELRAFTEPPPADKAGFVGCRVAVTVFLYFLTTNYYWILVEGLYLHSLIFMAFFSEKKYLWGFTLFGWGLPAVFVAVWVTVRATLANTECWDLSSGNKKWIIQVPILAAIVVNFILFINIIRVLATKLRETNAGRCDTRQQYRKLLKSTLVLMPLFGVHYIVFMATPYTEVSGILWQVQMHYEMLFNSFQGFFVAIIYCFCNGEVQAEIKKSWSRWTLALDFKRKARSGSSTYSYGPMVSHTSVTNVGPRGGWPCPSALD

[Nle^8,18, Tyr^34]bPTH(1-34)amide
increase in intracellular free calcium, PTH(1-34) compared with PTHrP(1-36) [1]: to the same extent
inositol phosphate metabolism (IP3 and IP2 accumulation) [2]: rapid increase
cAMP accumulation [3]: increase cAMP accumulation
